In PMC6070540, “SUMO-mediated regulation of NLRP3 modulates inflammasome activity” (Nature Communications, 2018):

Columns and labels:
NLRP3 and ASC = assay: PLA NLRP3/ASC (inflammasome formation); type: cell-based, murine; conditions: WT BMDMs; LPS 4 h followed by 10 µM nigericin 30 min or 5 mM ATP 20 min (ATP n = 1)
Experimental: (§1) For immunofluorescence staining, 1.5 × 10^5 cells were plated on 13 mm glass cover slips (VWR). Cells were either left untreated, or treated with LPS (500 ng/ml) for 4 h followed or not by 10 µM nigericin for 30 min or 5 mM ATP for 20 min, before being fixed in 4% paraformaldehyde for 10 min. Following 10 min permeabilization with PBS containing 0.5% Triton X-100, cells were incubated for 1 h in 5% BSA in PBS. Respective primary antibodies were then added as follows: mouse α-NLRP3 (AG-20B-0014, AdipoGen, 1:1000), rabbit α-SUMO-2/3 (4971, Cell Signalling, 1:1000), rabbit α-ASC (AG-25B-0006, AdipoGen, 1:200) and rabbit α-MAPL (ab84067, Abcam, 1:1000). Alexa Fluor 633-conjugated Phalloidin (Invitrogen, 1:500) was used to stain actin filaments. Secondary fluorescent conjugated antibodies were then added as follows: 1:1000 CF488A-donkey α-mouse and 1:1000 CF488-donkey α-rabbit. Nuclei were stained with DAPI (Invitrogen). Cells were visualised by confocal microscopy (objective× 40, Zeiss LSM710). PLA was performed according to the manufacturer’s protocol using the Duolink Detection Kit (Cambridge BioScience Ltd). […] The number of fluorescent spots in 50 cells were quantified using ImageJ and data analysed using two-way ANOVA multiple comparison test or two-tailed Student’s t-test using Prism 7, Graphpad.

[1] = test system: endogenous NLRP3 and SUMO-2/-3; assay: Proximity ligation assay (PLA) NLRP3/SUMO-2/-3; type: cell-based, murine; conditions: immortalised WT BMDMs; LPS 4 h followed by 10 µM nigericin 30 min or 5 mM ATP 20 min (ATP n = 1)
Experimental: as §1

FLAG-tagged human NLRP3 = assay: Sumoylation of NLRP3 in HEK293T cells (denaturing immunoprecipitation, immunoblot); type: cell-based; conditions: for sumoylation of mutant NLRP3: transfected HEK293T cells, compared to WT NLRP3
Experimental: (§2) For sumoylation and ubiquitination assays 2 × 10^6 HEK293T cells were plated in 10 cm dishes and transfected with a total of 7.5 μg of DNA the following day. A modified version of “Detection of Sumoylated Proteins by Immunoprecipitation Analysis”[61] was used. Briefly, 16 h post-transfection cells were lysed in SDS lysis buffer (1% SDS, 0.15 M Tris-HCl pH 6.8 and 30% Glycerol). Lysates were boiled for 5 min and diluted 10 × in PBS-T (PBS and 1% Triton-X 100) supplemented with PR-619 (50 μM) and complete protease inhibitors. Cell lysates were sonicated for 20 s then clarified at 4 °C at 13,000 rpm for 10 min. A 20 μl of α-HA beads (SIGMA) or α-FLAG M2 beads (SIGMA) was rotated with cleared protein lysates at 4 °C for 4 h. Furthermore, 4× washes in PBS-T, supplemented with PR-619 (20 μM) and complete protease inhibitors, were performed, and samples eluted by boiling in 60 μl 1× SDS loading dye. Samples were separated by SDS-PAGE using Bolt 8% Bis-Tris plus 1.0 mm 12 well precast protein gels (Life Technologies) in MOPS buffer. Where necessary, the modification smears were quantified using Image Lab Software (Bio-Rad) and normalised to total immunoprecipitated NLRP3 in biological triplicate.

SUMO-2/-3 proteome = assay: Global sumoylation (RanGAP1, total SUMO-2/-3 proteome); type: cell-based, human; conditions: HEK293T cells, nigericin
Experimental: as §2

NLRP3 and MAPL = assay: PLA NLRP3/MAPL; type: cell-based, murine; conditions: WT BMDMs; untreated, LPS 4 h, or LPS 4 h followed by 10 µM nigericin 30 min; biological triplicate
Experimental: as §1

NLRP3, SUMO-2/-3, MAPL = assay: Immunofluorescence staining of NLRP3, SUMO-2/-3, MAPL; type: cell-based, murine; conditions: BMDMs
Experimental: as §1

FLAG-NLRP3 = assay: Ubiquitylation of NLRP3 in HEK293T cells (immunoprecipitation, immunoblot); type: cell-based, human
Experimental: as §2

caspase-1 = assay: Caspase-1 cleavage assay in 293T-ASC-caspase-1 cells; type: cell-based, human; conditions: transfected 293T-ASC-caspase-1 cells; p20 immunoblot
Experimental: For caspase-1 cleavage assays 1 × 10^5 HEK293T-ASC-caspase-1 cells were plated in 24-well plates and transfected with a total of 600 ng of DNA the following day. Cells were lysed in 80 μl of DISC lysis buffer (20 mM Tris-HCL pH 7.5, 150 mM NaCl, 2 mM EDTA, 1% Triton X-100, 10% Glycerol) supplemented with 2% SDS. To shred genomic DNA cell lysates were passed through 0.8 ml columns (Pierce). Lysates were quantified using BCA protein assay kit (Pierce) and 6× SDS loading dye added. Samples were boiled for 5 min before separating by SDS-PAGE using NuPAGE Novex 4–12% Bis-Tris 1.0 mm 20 well precast midi protein gels (Life Technologies) in MES buffer. Caspase-1 p20 antibody (Bally-1, human, Adipogen) was used to detect total and cleaved caspase-1 in cell lysate.

Nc1ncnc2c1ncn2[C@@H]1O[C@H](COP(=O)(O)OP(=O)(O)OP(=O)(O)O)[C@@H](O)[C@H]1O [ATP]
NLRP3-ASC inflammasome complexes (PLA) (NLRP3 and ASC): specifically formed upon treatment with LPS and nigericin or ATP | NLRP3-SUMO-2/-3 PLA signals upon inflammasome activation [1]: significantly reduced proximity labelling of NLRP3 and SUMO-2/-3

N#CSc1cc(SC#N)c(N)nc1N [PR-619]
appearance of sumoylated NLRP3 (FLAG-tagged human NLRP3; HEK293T cells transfected with FLAG-tagged human NLRP3, endogenous SUMO-2/-3, immunoblot, in the presence vs absence of compound): significantly enhanced the appearance of sumoylated NLPR3

CO[C@@H]1C[C@@H](C[C@H]2CC[C@H](C)[C@H]([C@@H](C)C(=O)O)O2)O[C@]2(O[C@](C)([C@H]3CC[C@@](C)([C@@H]4O[C@@H]([C@H]5O[C@@](O)(CO)[C@H](C)C[C@@H]5C)C[C@@H]4C)O3)C[C@H]2C)[C@@H]1C [nigericin]
sumoylation of RanGAP1 (SUMO-2/-3 proteome; selectivity control): remained sumoylated | overall smearing pattern of total SUMO-2/-3 proteome (SUMO-2/-3 proteome; total cell lysates): no apparent change | MAPL/NLRP3 proximity signals (NLRP3 and MAPL): almost completely abolished MAPL/NLRP3 proximity signals | NLRP3-ASC inflammasome complexes (PLA) (NLRP3 and ASC): specifically formed upon treatment with LPS and nigericin or ATP | general expression of NLRP3 and SUMO-2/-3 (NLRP3, SUMO-2/-3, MAPL; LPS and nigericin, immunofluorescence): unaffected | MAPL staining (NLRP3, SUMO-2/-3, MAPL; nigericin, conventional immunofluorescence): caused a decrease in MAPL staining | ubiquitylated NLRP3 after stimulation (FLAG-NLRP3; HEK293T cells expressing FLAG-NLRP3, nigericin time course, three independent experiments): less ubiquitylated | NLRP3-SUMO-2/-3 PLA signals upon inflammasome activation [1]: significantly reduced proximity labelling of NLRP3 and SUMO-2/-3 | sumoylated NLRP3 after stimulation (FLAG-tagged human NLRP3; HEK293T cells expressing FLAG-NLRP3, nigericin time course, normalised to total immunoprecipitated NLRP3, three independent experiments): induced notable reduction of sumoylated NLRP3

NLRP3^E690K: reported CAPS disease mutant
sumoylation of mutant NLRP3 (FLAG-tagged human NLRP3): did not reduce the overall sumoylation smearing pattern

NLRP3^E692K: reported CAPS disease mutant
sumoylation of mutant NLRP3 (FLAG-tagged human NLRP3): did not reduce the overall sumoylation smearing pattern

NLRP3^K689R: full length NLRP3 with K689 mutated to R
ability of NLRP3 to activate caspase-1 (caspase-1): hyperactive in driving caspase-1 cleavage | ubiquitylation of mutant NLRP3 (FLAG-NLRP3; transfected HEK293T cells, compared to WT NLRP3): no effect | sumoylation of mutant NLRP3 (FLAG-tagged human NLRP3): no effect

B1: WT MAPL: mitochondrial-anchored protein ligase, SUMO E3 ligase (protein)
chain: MESGGRPSLCQFILLGTTSVVTAALYSVYRQKARVSQELKGAKKVHLGEDLKSILSEAPGKCVPYAVIEGAVRSVKETLNSQFVENCKGVIQRLTLQEHKMVWNRTTHLWNDCSKIIHQRTNTVPFDLVPHEDGVDVAVRVLKPLDSVDLGLETVYEKFHPSIQSFTDVIGHYISGERPKGIQETEEMLKVGATLTGVGELVLDNNSVRLQPPKQGMQYYLSSQDFDSLLQRQESSVRLWKVLALVFGFATCATLFFILRKQYLQRQERLRLKQMQEEFQEHEAQLLSRAKPEDRESLKSACVVCLSSFKSCVFLECGHVCSCTECYRALPEPKKCPICRQAITRVIPLYNS
modifications: left off: 2xHA, end not stated, kept | 2xSTREP, end not stated, state not stated
sumoylation of NLRP3 by co-expressed MAPL (FLAG-tagged human NLRP3; FLAG-NLRP3 purified under denaturing conditions, HEK293T, three independent experiments): sumoylated NLRP3
